Experimental data taken from PubChem BioAssay (NCI).
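Grown in 96-well plates, cells were treated for 48 hours with each compound at five concentrations. Insufficient inhibition: endpoint recorded as highest concentration tested. TGI marks complete inhibition of growth.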

Experiments:
Assay in all cases: NCI anticancer screen, dose series, 48 h
SF-539 CNS = test system: SF-539 CNS
OVCAR-5 ovarian = test system: OVCAR-5 ovarian
SNB-75 CNS = test system: SNB-75 CNS
SK-MEL-5 melanoma = test system: SK-MEL-5 melanoma
OVCAR-8 ovarian = test system: OVCAR-8 ovarian
NCI/ADR-RES ovarian = test system: NCI/ADR-RES ovarian
U251 CNS = test system: U251 CNS
UACC-257 melanoma = test system: UACC-257 melanoma
SF-268 CNS = test system: SF-268 CNS
SK-OV-3 ovarian = test system: SK-OV-3 ovarian
DU-145 prostate = test system: DU-145 prostate
NCI-H23 lung = test system: NCI-H23 lung
HOP-92 NSCLC = test system: HOP-92 NSCLC
SNB-19 CNS = test system: SNB-19 CNS
A549 NSCLC = test system: A549 NSCLC
ACHN renal = test system: ACHN renal
SF-295 CNS = test system: SF-295 CNS
MDA-MB-435 = test system: MDA-MB-435
BT-549 breast = test system: BT-549 breast
M14 melanoma = test system: M14 melanoma
TK-10 renal = test system: TK-10 renal
HS 578T breast = test system: HS 578T breast
CCRF-CEM leukemia = test system: CCRF-CEM leukemia
OVCAR-4 ovarian = test system: OVCAR-4 ovarian
PC-3 prostate = test system: PC-3 prostate
IGROV1 ovarian = test system: IGROV1 ovarian
MDA-MB-231 breast = test system: MDA-MB-231 breast
EKVX NSCLC = test system: EKVX NSCLC
SK-MEL-28 melanoma = test system: SK-MEL-28 melanoma
MCF7 breast = test system: MCF7 breast
SN12C renal = test system: SN12C renal
OVCAR-3 ovarian = test system: OVCAR-3 ovarian
HCT-116 colon = test system: HCT-116 colon
UO-31 renal = test system: UO-31 renal
MALME-3M melanoma = test system: MALME-3M melanoma
T-47D breast = test system: T-47D breast
SW-620 colon = test system: SW-620 colon
HCC-2998 colon = test system: HCC-2998 colon
UACC-62 melanoma = test system: UACC-62 melanoma
MDA-N = test system: MDA-N
K-562 leukemia = test system: K-562 leukemia
KM12 colon = test system: KM12 colon
NCI-H226 lung = test system: NCI-H226 lung
HCT-15 colon = test system: HCT-15 colon
HT29 colon = test system: HT29 colon
LOX IMVI melanoma = test system: LOX IMVI melanoma
A498 renal = test system: A498 renal
HOP-62 NSCLC = test system: HOP-62 NSCLC
CAKI-1 renal = test system: CAKI-1 renal
NCI-H460 lung = test system: NCI-H460 lung
RPMI-8226 leukemia = test system: RPMI-8226 leukemia
786-0 renal = test system: 786-0 renal
MOLT-4 leukemia = test system: MOLT-4 leukemia
COLO 205 colon = test system: COLO 205 colon
RXF 393 renal = test system: RXF 393 renal
SK-MEL-2 melanoma = test system: SK-MEL-2 melanoma
NCI-H522 lung = test system: NCI-H522 lung
HL-60(TB) leukemia = test system: HL-60(TB) leukemia

With `COc1cc(C2c3[nH]c4ccccc4c3[C@@H](Nc3ccc(F)cc3)[C@H]3COC(=O)N23)cc(OC)c1O` (some centres not stated) the TGI (SF-539 CNS) was 3.17 µM, the TGI (OVCAR-5 ovarian) was 9.08 µM and the TGI (SNB-75 CNS) was 6.08 µM. The TGI (SK-MEL-5 melanoma) was 2.48 µM, the TGI (OVCAR-8 ovarian) was > 10 µM and the TGI (NCI/ADR-RES ovarian) was > 10 µM. The TGI (U251 CNS) was 7.96 µM, the TGI (UACC-257 melanoma) was > 10 µM and the TGI (SF-268 CNS) was 7.01 µM. The TGI (SK-OV-3 ovarian) was 3.95 µM, the TGI (DU-145 prostate) was 4.07 µM and the TGI (NCI-H23 lung) was 5.18 µM. For the same compound, the TGI (HOP-92 NSCLC) was > 10 µM, the TGI (SNB-19 CNS) was 7.09 µM and the TGI (A549 NSCLC) was 3.31 µM. The TGI (ACHN renal) was 1.34 µM, the TGI (SF-295 CNS) was 3.69 µM and the TGI (MDA-MB-435) was > 10 µM. It also gave a TGI (BT-549 breast) of 4.28 µM, a TGI (M14 melanoma) of 9.55 µM and a TGI (TK-10 renal) of 4.85 µM. The TGI (HS 578T breast) was 2.11 µM, the TGI (CCRF-CEM leukemia) was 3.93 µM and the TGI (OVCAR-4 ovarian) was > 10 µM. For the same compound, the TGI (PC-3 prostate) was > 10 µM, the TGI (IGROV1 ovarian) was 9.24 µM and the TGI (MDA-MB-231 breast) was > 10 µM. The TGI (EKVX NSCLC) was > 10 µM, the TGI (SK-MEL-28 melanoma) was > 10 µM and the TGI (MCF7 breast) was > 10 µM. The TGI (SN12C renal) was 5.57 µM, the TGI (OVCAR-3 ovarian) was 6.09 µM and the TGI (HCT-116 colon) was > 10 µM. The TGI (UO-31 renal) was 2.67 µM, the TGI (MALME-3M melanoma) was 7.28 µM and the TGI (T-47D breast) was > 10 µM. It also gave a TGI (SW-620 colon) of 5.74 µM, a TGI (HCC-2998 colon) of 3.34 µM and a TGI (UACC-62 melanoma) of 4.6 µM. For the same compound, the TGI (MDA-N) was > 10 µM, the TGI (K-562 leukemia) was > 10 µM and the TGI (KM12 colon) was 6.5 µM. For the same compound, the TGI (NCI-H226 lung) was 2.9 µM, the TGI (HCT-15 colon) was 5.35 µM and the TGI (HT29 colon) was > 10 µM. For the same compound, the TGI (LOX IMVI melanoma) was 3.26 µM, the TGI (A498 renal) was 7.55 µM and the TGI (HOP-62 NSCLC) was 3.42 µM. It also gave a TGI (CAKI-1 renal) of 3.22 µM and a TGI (NCI-H460 lung) of 4.74 µM.

`O=[N+]([O-])/C(C(Cl)=C(Cl)Cl)=C(\Nc1cccc2ccccc12)Sc1ccccc1` gave a TGI (SF-539 CNS) of 37.4 µM, a TGI (OVCAR-5 ovarian) of 82.1 µM and a TGI (SNB-75 CNS) of 43.4 µM. The TGI (OVCAR-8 ovarian) was 28.6 µM, the TGI (NCI/ADR-RES ovarian) was 31 µM and the TGI (U251 CNS) was 23.4 µM. For the same compound, the TGI (UACC-257 melanoma) was 42.3 µM, the TGI (SF-268 CNS) was 26 µM and the TGI (SK-OV-3 ovarian) was > 100 µM. For the same compound, the TGI (DU-145 prostate) was 32 µM, the TGI (NCI-H23 lung) was 31.6 µM and the TGI (RPMI-8226 leukemia) was > 100 µM. For the same compound, the TGI (SNB-19 CNS) was 40 µM, the TGI (A549 NSCLC) was 71.6 µM and the TGI (ACHN renal) was 28.1 µM. It also gave a TGI (SF-295 CNS) of 37.1 µM, a TGI (MDA-MB-435) of 33.4 µM and a TGI (BT-549 breast) of 35.4 µM. For the same compound, the TGI (M14 melanoma) was > 100 µM, the TGI (HS 578T breast) was 27.2 µM and the TGI (CCRF-CEM leukemia) was > 100 µM. It also gave a TGI (OVCAR-4 ovarian) of 35.7 µM, a TGI (PC-3 prostate) of 27.4 µM and a TGI (MDA-MB-231 breast) of 23.4 µM. It also gave a TGI (786-0 renal) of 38 µM, a TGI (EKVX NSCLC) of 42.2 µM and a TGI (SK-MEL-28 melanoma) of 34 µM. For the same compound, the TGI (MCF7 breast) was 28 µM, the TGI (SN12C renal) was 69.3 µM and the TGI (OVCAR-3 ovarian) was 21.8 µM. The TGI (HCT-116 colon) was 56.3 µM, the TGI (UO-31 renal) was 38.7 µM and the TGI (MALME-3M melanoma) was 31.3 µM. The TGI (T-47D breast) was 44.8 µM, the TGI (SW-620 colon) was 24.9 µM and the TGI (HCC-2998 colon) was 45.2 µM. The TGI (UACC-62 melanoma) was 24.1 µM, the TGI (MDA-N) was 81 µM and the TGI (K-562 leukemia) was > 100 µM. For the same compound, the TGI (MOLT-4 leukemia) was > 100 µM, the TGI (KM12 colon) was 32 µM and the TGI (COLO 205 colon) was 28.7 µM. For the same compound, the TGI (NCI-H226 lung) was 40.4 µM, the TGI (HCT-15 colon) was 33.1 µM and the TGI (RXF 393 renal) was 26.9 µM. For the same compound, the TGI (SK-MEL-2 melanoma) was 30.6 µM, the TGI (HT29 colon) was > 100 µM and the TGI (A498 renal) was 23.5 µM. The TGI (HOP-62 NSCLC) was 50.5 µM, the TGI (CAKI-1 renal) was 29.1 µM and the TGI (NCI-H460 lung) was > 100 µM.

For `CC(=O)OC/C=C(\C)CCC(Br)C(C)(C)Br` (configuration not stated), the TGI (SF-539 CNS) was > 10 µM, the TGI (OVCAR-5 ovarian) was > 10 µM and the TGI (SNB-75 CNS) was > 10 µM. The TGI (SK-MEL-5 melanoma) was > 10 µM, the TGI (OVCAR-8 ovarian) was > 10 µM and the TGI (NCI/ADR-RES ovarian) was > 10 µM. For the same compound, the TGI (U251 CNS) was > 10 µM, the TGI (UACC-257 melanoma) was > 10 µM and the TGI (SF-268 CNS) was > 10 µM. For the same compound, the TGI (SK-OV-3 ovarian) was > 10 µM, the TGI (DU-145 prostate) was > 10 µM and the TGI (NCI-H23 lung) was > 10 µM. The TGI (NCI-H522 lung) was > 10 µM, the TGI (RPMI-8226 leukemia) was > 10 µM and the TGI (SNB-19 CNS) was > 10 µM. The TGI (A549 NSCLC) was > 10 µM, the TGI (ACHN renal) was > 10 µM and the TGI (SF-295 CNS) was > 10 µM. For the same compound, the TGI (MDA-MB-435) was > 10 µM, the TGI (BT-549 breast) was > 10 µM and the TGI (M14 melanoma) was > 10 µM. For the same compound, the TGI (TK-10 renal) was > 10 µM, the TGI (HS 578T breast) was > 10 µM and the TGI (CCRF-CEM leukemia) was > 10 µM. For the same compound, the TGI (OVCAR-4 ovarian) was > 10 µM, the TGI (PC-3 prostate) was > 10 µM and the TGI (IGROV1 ovarian) was > 10 µM. For the same compound, the TGI (MDA-MB-231 breast) was > 10 µM, the TGI (786-0 renal) was > 10 µM and the TGI (EKVX NSCLC) was > 10 µM. For the same compound, the TGI (SK-MEL-28 melanoma) was > 10 µM, the TGI (MCF7 breast) was > 10 µM and the TGI (SN12C renal) was > 10 µM. The TGI (OVCAR-3 ovarian) was > 10 µM, the TGI (HCT-116 colon) was > 10 µM and the TGI (MALME-3M melanoma) was > 10 µM. The TGI (T-47D breast) was > 10 µM, the TGI (SW-620 colon) was > 10 µM and the TGI (HCC-2998 colon) was > 10 µM. For the same compound, the TGI (UACC-62 melanoma) was > 10 µM, the TGI (MDA-N) was > 10 µM and the TGI (K-562 leukemia) was > 10 µM. The TGI (MOLT-4 leukemia) was > 10 µM, the TGI (HL-60(TB) leukemia) was > 10 µM and the TGI (KM12 colon) was > 10 µM. The TGI (COLO 205 colon) was > 10 µM, the TGI (NCI-H226 lung) was > 10 µM and the TGI (HCT-15 colon) was > 10 µM. The TGI (RXF 393 renal) was > 10 µM, the TGI (SK-MEL-2 melanoma) was > 10 µM and the TGI (HT29 colon) was > 10 µM. For the same compound, the TGI (LOX IMVI melanoma) was > 10 µM, the TGI (A498 renal) was > 10 µM and the TGI (HOP-62 NSCLC) was > 10 µM. For the same compound, the TGI (CAKI-1 renal) was > 10 µM and the TGI (NCI-H460 lung) was > 10 µM.
